Experimental data from publication PMC5681922, “Systemic Responses of Multidrug-Resistant Pseudomonas aeruginosa and Acinetobacter baumannii Following Exposure to the Antimicrobial Peptide Cathelicidin-BF Imply Multiple Intracellular Targets” (Frontiers in Cellular and Infection Microbiology, 2017).
Read-outs that look alike come from different tables or passages of the source. No end group written: not given here.

Columns and labels:
P. aeruginosa 1409 [1] = system: P. aeruginosa 1409
P. aeruginosa 1409 [2] = test: Minimal inhibitory concentration (given as multiples of MIC); format: cell-based, Pseudomonas aeruginosa; details: MDR clinical isolate; MIC itself not given, only this multiple
P. aeruginosa 1409 [3] = test: Membrane permeabilization assay (propidium iodide); format: cell-based, Pseudomonas aeruginosa; details: 1 h at 25°C in LB, then PI 10 μg/mL 30 min, fluorescence microscope
Description: Then, PI was added to a final concentration of 10 μg/mL. After 30 min of incubation at 25°C, the cells were washed 3 times with PBS and immediately imaged with a fluorescence microscope (Olympus, Japan) (Yu et al., [2015]).
Figure 3 Bacterial plasma membrane permeabilization assay of cathelicidin-BF. Cathelicidin-BF and levofloxacin were incubated with MDR P. aeruginosa in Luria-Bertani medium at final concentrations of 4 × MIC (minimal inhibitory concentration) or ¼ × MIC. After incubation at 25°C for 1 h, bacteria were collected by centrifugation at 3,000 × g for 5 min and resuspended with PBS. The DNA-binding fluorescent dye PI was added to a final concentration of 10 μg/mL. After 30 min incubation at 25°C, the cells were washed 3 times with PBS and immediately imaged using a fluorescence microscope.

[4] = treated vs untreated, iTRAQ, cathelicidin-BF change not categorized as differentially expressed

Sequence: KFFRKLKKSVKKRAKEFFKKPRVIGVSIPF [cathelicidin-BF]
- Pa-Ca/Pa-C (P. aeruginosa 1409 [1]; iTRAQ abundance ratio Pa-Cathelicidin/Pa-Control of protein Q9HYK2 (GN=PA3402)): 1.136
- Pa-Ca/Pa-C (P. aeruginosa 1409 [1]; iTRAQ abundance ratio Pa-Cathelicidin/Pa-Control of protein Q9HYU6 (GN=PA3297)): 0.9414
- Pa-Ca/Pa-C (P. aeruginosa 1409 [1]; iTRAQ abundance ratio Pa-Cathelicidin/Pa-Control of protein Q9HYV7 (GN=PA3286)): 0.9022
- Pa-Ca/Pa-C (P. aeruginosa 1409 [1]; iTRAQ abundance ratio Pa-Cathelicidin/Pa-Control of protein Q9HYZ3 (GN=apeB)): 1.0565
- Pa-Ca/Pa-C (P. aeruginosa 1409 [1]; iTRAQ abundance ratio Pa-Cathelicidin/Pa-Control of protein Q9HZD8 (GN=PA3070)): 0.9912
- Pa-Ca/Pa-C (P. aeruginosa 1409 [1]; iTRAQ abundance ratio Pa-Cathelicidin/Pa-Control of protein Q9HZF4 (GN=PA3054)): 0.9528
- Pa-Ca/Pa-C (P. aeruginosa 1409 [1]; iTRAQ abundance ratio Pa-Cathelicidin/Pa-Control of protein Q9HZG0 (GN=rlmL)): 0.9995
- Pa-Ca/Pa-C (P. aeruginosa 1409 [1]; iTRAQ abundance ratio Pa-Cathelicidin/Pa-Control of protein Q9HZG4 (GN=PA3044)): 1.123
- Pa-Ca/Pa-C (P. aeruginosa 1409 [1]; iTRAQ abundance ratio Pa-Cathelicidin/Pa-Control of protein Q9HZM6 (GN=ptpA)): 0.8326
- Pa-Ca/Pa-C (P. aeruginosa 1409 [1]; iTRAQ abundance ratio Pa-Cathelicidin/Pa-Control of protein Q9HZN0 (GN=PA2974)): 1.056
- Pa-Ca/Pa-C (P. aeruginosa 1409 [1]; iTRAQ abundance ratio Pa-Cathelicidin/Pa-Control of protein Q9HZY0 (GN=mttC)): 1.0109
- Pa-Ca/Pa-C (P. aeruginosa 1409 [1]; iTRAQ abundance ratio Pa-Cathelicidin/Pa-Control of protein Q9I0F5 (GN=PA2683)): 1.0558
- Pa-Ca/Pa-C (P. aeruginosa 1409 [1]; iTRAQ abundance ratio Pa-Cathelicidin/Pa-Control of protein Q9I0I2 (GN=PA2656)): 1.043
- Pa-Ca/Pa-C (P. aeruginosa 1409 [1]; iTRAQ abundance ratio Pa-Cathelicidin/Pa-Control of protein Q9I0Q7 (GN=kynA)): 0.9342
- Pa-Ca/Pa-C (P. aeruginosa 1409 [1]; iTRAQ abundance ratio Pa-Cathelicidin/Pa-Control of protein Q9I0R5 (GN=PA2571)): 0.9216
- Pa-Ca/Pa-C (P. aeruginosa 1409 [1]; iTRAQ abundance ratio Pa-Cathelicidin/Pa-Control of protein Q9I0Z9 (GN=PA2483)): 0.8854
- Pa-Ca/Pa-C (P. aeruginosa 1409 [1]; iTRAQ abundance ratio Pa-Cathelicidin/Pa-Control of protein Q9I1H9 (GN=PA2296)): 0.9095
- Pa-Ca/Pa-C (P. aeruginosa 1409 [1]; iTRAQ abundance ratio Pa-Cathelicidin/Pa-Control of protein Q9I1I4 (GN=PA2291)): 1.111
- Pa-Ca/Pa-C (P. aeruginosa 1409 [1]; iTRAQ abundance ratio Pa-Cathelicidin/Pa-Control of protein Q9I1M1 (GN=bkdA2)): 1.005
- Pa-Ca/Pa-C (P. aeruginosa 1409 [1]; iTRAQ abundance ratio Pa-Cathelicidin/Pa-Control of protein Q9I2G3 (GN=PA1941)): 0.9926
- Pa-Ca/Pa-C (P. aeruginosa 1409 [1]; iTRAQ abundance ratio Pa-Cathelicidin/Pa-Control of protein Q9I2R3 (GN=PA1832)): 0.9008
- Pa-Ca/Pa-C (P. aeruginosa 1409 [1]; iTRAQ abundance ratio Pa-Cathelicidin/Pa-Control of protein Q9I2T1 (GN=gloB)): 0.964
- Pa-Ca/Pa-C (P. aeruginosa 1409 [1]; iTRAQ abundance ratio Pa-Cathelicidin/Pa-Control of protein Q9I2Y1 (GN=pabB)): 0.998
- Pa-Ca/Pa-C (P. aeruginosa 1409 [1]; iTRAQ abundance ratio Pa-Cathelicidin/Pa-Control of protein Q9I3F3 (GN=tusA)): 0.8155
- Pa-Ca/Pa-C (P. aeruginosa 1409 [1]; iTRAQ abundance ratio Pa-Cathelicidin/Pa-Control of protein Q9I3J6 (GN=PA1517)): 1.049
- Pa-Ca/Pa-C (P. aeruginosa 1409 [1]; iTRAQ abundance ratio Pa-Cathelicidin/Pa-Control of protein Q9I3L0 (GN=gcl)): 0.9901
- Pa-Ca/Pa-C (P. aeruginosa 1409 [1]; iTRAQ abundance ratio Pa-Cathelicidin/Pa-Control of protein Q9I4B6 (GN=PA1222)): 0.8647
- Pa-Ca/Pa-C (P. aeruginosa 1409 [1]; iTRAQ abundance ratio Pa-Cathelicidin/Pa-Control of protein Q9I4H9 (GN=PA1158)): 1.038
- Pa-Ca/Pa-C (P. aeruginosa 1409 [1]; iTRAQ abundance ratio Pa-Cathelicidin/Pa-Control of protein Q9I4N6 (GN=fliS)): 1.132
- Pa-Ca/Pa-C (P. aeruginosa 1409 [1]; iTRAQ abundance ratio Pa-Cathelicidin/Pa-Control of protein Q9I4N9 (GN=PA1090)): 1.038
- Pa-Ca/Pa-C (P. aeruginosa 1409 [1]; iTRAQ abundance ratio Pa-Cathelicidin/Pa-Control of protein Q9I4R3 (GN=PA1061)): 0.9798
- Pa-Ca/Pa-C (P. aeruginosa 1409 [1]; iTRAQ abundance ratio Pa-Cathelicidin/Pa-Control of protein Q9I5M1 (GN=migA)): 0.9698
- Pa-Ca/Pa-C (P. aeruginosa 1409 [1]; iTRAQ abundance ratio Pa-Cathelicidin/Pa-Control of protein Q9I5U7 (GN=apaH)): 1.014
- Pa-Ca/Pa-C (P. aeruginosa 1409 [1]; iTRAQ abundance ratio Pa-Cathelicidin/Pa-Control of protein Q9I5V3 (GN=cca)): 0.7612
- Pa-Ca/Pa-C (P. aeruginosa 1409 [1]; iTRAQ abundance ratio Pa-Cathelicidin/Pa-Control of protein Q9I6B3 (GN=trmB)): 1.011
- Pa-Ca/Pa-C (P. aeruginosa 1409 [1]; iTRAQ abundance ratio Pa-Cathelicidin/Pa-Control of protein Q9I7A7 (GN=PA0020)): 1.051
- Pa-Ca/Pa-C (P. aeruginosa 1409 [1]; iTRAQ abundance ratio Pa-Cathelicidin/Pa-Control of protein Q9I022 (GN=PA2821)): 0.7721
- Pa-Ca/Pa-C (P. aeruginosa 1409 [1]; iTRAQ abundance ratio Pa-Cathelicidin/Pa-Control of protein Q9I164 (GN=PA2417)): 1.295
- Pa-Ca/Pa-C (P. aeruginosa 1409 [1]; iTRAQ abundance ratio Pa-Cathelicidin/Pa-Control of protein Q9I233 (GN=PA2082)): 0.8885
- Pa-Ca/Pa-C (P. aeruginosa 1409 [1]; iTRAQ abundance ratio Pa-Cathelicidin/Pa-Control of protein Q9I300 (GN=PA1737)): 1.149
- Pa-Ca/Pa-C (P. aeruginosa 1409 [1]; iTRAQ abundance ratio Pa-Cathelicidin/Pa-Control of protein Q9I342 (GN=mtnB)): 1.093
- Pa-Ca/Pa-C (P. aeruginosa 1409 [1]; iTRAQ abundance ratio Pa-Cathelicidin/Pa-Control of protein Q9I468 (GN=cobC)): 0.7767
- Pa-Ca/Pa-C (P. aeruginosa 1409 [1]; iTRAQ abundance ratio Pa-Cathelicidin/Pa-Control of protein Q9I538 (GN=PA0919)): 0.9631
- Pa-Ca/Pa-C (P. aeruginosa 1409 [1]; iTRAQ abundance ratio Pa-Cathelicidin/Pa-Control of protein Q9I655 (GN=creB)): 0.9495
- Pa-Ca/Pa-C (P. aeruginosa 1409 [1]; iTRAQ abundance ratio Pa-Cathelicidin/Pa-Control of protein Q9I656 (GN=PA0462)): 1.049
- Pa-Ca/Pa-C (P. aeruginosa 1409 [1]; iTRAQ abundance ratio Pa-Cathelicidin/Pa-Control of protein Q9I673 (GN=PA0444)): 0.9127
- Pa-Ca/Pa-C (P. aeruginosa 1409 [1]; iTRAQ abundance ratio Pa-Cathelicidin/Pa-Control of protein Q9I688 (GN=PA0429)): 1.007
- Pa-Ca/Pa-C (P. aeruginosa 1409 [1]; iTRAQ abundance ratio Pa-Cathelicidin/Pa-Control of protein Q9I700 (GN=bauA)): 0.9294
- Pa-Ca/Pa-C (P. aeruginosa 1409 [1]; iTRAQ abundance ratio Pa-Cathelicidin/Pa-Control of protein Q9X6V8 (GN=PA3998)): 1.122
- Pa-Ca/Pa-C (P. aeruginosa 1409 [1]; iTRAQ abundance ratio Pa-Cathelicidin/Pa-Control of protein Q51426 (GN=ruvB)): 1.14
- expression of protein Q9HTV3 (3-octaprenyl-4-hydroxybenzoate carboxy-lyase) (P. aeruginosa 1409 [1]; [4]): downregulated
- expression of protein Q9I298 (putative 3-methylglutaconyl-ConA hydratase) (P. aeruginosa 1409 [1]; [4]): downregulated
- expression of protein Q9I5V3 (multifunctional CCA protein) (P. aeruginosa 1409 [1]; treated vs untreated, iTRAQ, levofloxacin change not categorized as differentially expressed): downregulated
- 4 × MIC (P. aeruginosa 1409 [2]): 32 µg/mL
- integrity of bacterial membranes, PI staining at 4 × MIC (P. aeruginosa 1409 [3]; 4 × MIC (cathelicidin-BF 32 μg/mL, levofloxacin 64 μg/mL)): showed red fluorescence
- integrity of bacterial membranes, PI staining at ¼ × MIC (P. aeruginosa 1409 [3]; ¼ × MIC (cathelicidin-BF 2 μg/mL, levofloxacin 4 μg/mL)): no red dyes were detected
